Measurements: ChEMBL document CHEMBL1129497, “Guanine, pyrazolo[3,4-d]pyrimidine, and triazolo[4,5-d]pyrimidine (8-azaguanine) phosphonate acyclic derivatives as inhibitors of purine nucleoside phosphorylase” (J Med Chem, 1996)

Biological target: T1, Purine nucleoside phosphorylase (Homo sapiens, UniProt P00491)
T1 sequence (P00491 whole entry): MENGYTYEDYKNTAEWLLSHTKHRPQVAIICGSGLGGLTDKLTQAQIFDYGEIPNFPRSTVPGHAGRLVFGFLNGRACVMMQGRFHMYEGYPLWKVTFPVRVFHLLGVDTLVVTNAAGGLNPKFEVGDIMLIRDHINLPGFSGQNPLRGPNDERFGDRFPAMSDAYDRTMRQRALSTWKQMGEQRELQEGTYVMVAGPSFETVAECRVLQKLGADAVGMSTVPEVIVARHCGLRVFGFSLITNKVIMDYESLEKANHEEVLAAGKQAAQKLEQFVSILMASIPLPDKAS
Assay: In vitro inhibition of purine nucleoside phosphorylase isolated from human erythrocytes.

Row | Compound | Ki
1 | Nc1nc(O)c2nn(COCCCCCP(=O)(O)O)nc2n1 | 550 nM
2 | Nc1nc2c(nnn2COCCCCCP(=O)(O)O)c(=O)[nH]1 | 96 nM
3 | Nc1nc2c(nnn2COCCCCP(=O)(O)O)c(=O)[nH]1 | 48 nM
4 | Nc1nc2c(cnn2COCCCCCP(=O)(O)O)c(=O)[nH]1 | 230 nM
5 | Nc1nc2c(ncn2COCCCCCP(=O)(O)O)c(=O)[nH]1 | 160 nM
6 | Nc1nc2c(cnn2CCCCCCCP(=O)(O)O)c(=O)[nH]1 | 580 nM
7 | Nc1nc2c(ncn2CCCCCCC(F)(F)P(=O)(O)O)c(=O)[nH]1 | 57 nM
8 | Nc1nc(O)c2ncn(CCCCCCCCP(=O)(O)O)c2n1 | 390 nM
9 | Nc1nc(O)c2nnn(COCCCCCCP(=O)(O)O)c2n1 | 190 nM
10 | Nc1nc2c(cnn2CCCCCCC(F)(F)P(=O)(O)O)c(=O)[nH]1 | 49 nM
11 | Nc1nc(O)c2nnn(CCCCCP(=O)(O)O)c2n1 | 65 nM

Continued by falling Ki, values first:

Row | Ki | Compound
12 | 7300 nM | Nc1nc(O)c2nnn(CCCCP(=O)(O)O)c2n1
13 | 1600 nM | Nc1nc2c(ncn2CCCCCCCCCCP(=O)(O)O)c(=O)[nH]1
14 | 1100 nM | Nc1nc2c(cnn2CCCCCCCCP(=O)(O)O)c(=O)[nH]1
15 | 630 nM | Nc1nc2c(cnn2COCCCCCCP(=O)(O)O)c(=O)[nH]1
16 | 530 nM | Nc1nc(O)c2ncn(CCCCCCCP(=O)(O)O)c2n1
17 | 360 nM | Nc1nc(O)c2nnn(CCCCCCP(=O)(O)O)c2n1
18 | 220 nM | Nc1nc2c(ncn2COCCCCCCP(=O)(O)O)c(=O)[nH]1
19 | 56 nM | Nc1nc(O)c2ncn(COCCCCP(=O)(O)O)c2n1
20 | 51 nM | Nc1nc2c(ncn2COCCCCOP(=O)(O)O)c(=O)[nH]1
